The values below come from ChEMBL document CHEMBL1201862, “PubChem BioAssay data set” (2004).

The GI50 is the concentration giving 50% growth inhibition.

Holding throughout (assay): DTP human tumour cell line panel, 48 h
The subject of test [1] is NCI-H226.
Test [2] relates to OVCAR-5.
The subject of test [3] is EKVX.
Test [4] deals with T47D.
Test [5] has as its system NCI/ADR-RES.
The subject of test [6] is SN12C.
Test [7] deals with MCF7.
The subject of test [8] is ACHN.
The subject of test [9] is SK-OV-3.
Test [10] relates to SR.
In test [11] the test system is DU-145.
Test [12] relates to MDA-MB-435.
For test [13], the system named is SK-MEL-2.
Test [14] concerns CCRF-CEM.
For test [15], the system named is COLO 205.
Test [16] concerns HL-60.
Test [17] deals with SNB-19.
Test [18] deals with RPMI-8226.
Test [19] concerns SW-620.
Test [20] has as its system UO-31.

Structures are written as SMILES.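 Values below derive from 48-hour exposures of cells grown in 96-well plates, with endpoints linearly interpolated between the two concentrations bracketing the appropriate inhibition level. Abbreviation: GI50, concentration required for 50% inhibition of growth.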 Active and inactive are the calls of the source. Rule as the data show it: active = GI50 up to about 1.1 µM and inactive = higher.

On to `CCC/C(Cl)=N\OC(=O)Nc1ccc(F)cc1`, for which the GI50 in test [1] was 19.7 µM (inactive); in [2], 18.7 µM (inactive); in [3], 17.3 µM (inactive); in test [4] it was 7.24 µM (inactive); in test [5], 21.1 µM (inactive); in [6], 16.7 µM (inactive). For the same compound, the GI50 in [7] is 20 µM (inactive); in test [8], 12.3 µM (inactive); in [9], > 45.1 µM (inactive); in [10], 2.18 µM (inactive); in test [11], 17 µM (inactive); in [12], 16.5 µM (inactive). For the same compound, the GI50 was 18.2 µM (inactive) in test [13]; 1.63 µM (inactive) in test [14]; 3.16 µM (inactive) in test [15]; 1.87 µM (inactive) in test [16]; 19.2 µM (inactive) in [17]; 6.01 µM (inactive) in test [18]. Besides, the GI50 in test [19] was 7 µM (inactive); in [20], 17.7 µM (inactive).
With `CCOC(=O)/C(=N\OC)C(O)C(F)(F)F` (stereo not given), the GI50 in test [1], in [2], in test [3], in test [4], in test [5] and in test [6] was > 100 µM (inactive) throughout. Besides, the GI50 in test [7], in test [8], in test [9], in test [10], in [11] and in test [12] was > 100 µM (inactive) in each case. Further, the GI50 in [13], in test [14], in test [15], in test [16], in test [17] and in [18] was > 100 µM (inactive) each time. Moreover, the GI50 in [19] and in test [20] was > 100 µM (inactive) in each case.
In the case of `OCCNc1nc2c(N3CCCC3)nc(N3CCNCC3)nc2nc1NCc1ccccc1`, the GI50 in test [1] is 16.3 µM (inactive); in test [2], 12.1 µM (inactive); in [3], 13.6 µM (inactive); in test [4] it was 12.5 µM (inactive); in test [5], 38.5 µM (inactive); in test [6], 16.7 µM (inactive). In addition, the GI50 in [7] is 14.3 µM (inactive); in test [8], 15.5 µM (inactive); in [9] it was 16.8 µM (inactive); in test [10], 13.3 µM (inactive); in test [11], 11.3 µM (inactive); in test [12], 12.4 µM (inactive). In addition, the GI50 is 15 µM (inactive) in [13]; 10.8 µM (inactive) in test [14]; 11.7 µM (inactive) in [15]; 15.5 µM (inactive) in test [16]; 15.8 µM (inactive) in test [17]; 16.7 µM (inactive) in test [18]. In addition, the GI50 in test [19] was 19.1 µM (inactive); in test [20] it was 15.3 µM (inactive).
Regarding `C[Si](C)(C)CNC(=O)OCc1ccccc1`, the GI50 was 66.4 µM (inactive) in test [1]; > 100 µM (inactive) in [2]; 76.7 µM (inactive) in [3]; 19.1 µM (inactive) in test [4]; 75 µM (inactive) in test [5]; > 100 µM (inactive) in test [6]. Moreover, the GI50 in [7] was > 100 µM (inactive); in [8] it was > 100 µM (inactive); in [9], 0.962 µM (active); in test [10], 30.6 µM (inactive); in test [11] it was > 100 µM (inactive); in [12], > 100 µM (inactive). For the same compound, the GI50 in test [13] was > 100 µM (inactive); in [14] it was > 100 µM (inactive); in test [15], > 100 µM (inactive); in test [16] it was 57.4 µM (inactive); in test [17] it was > 100 µM (inactive); in test [18] it was 32.2 µM (inactive). The GI50 in test [19] and in test [20] was > 100 µM (inactive) throughout.
Turning to `CCCCCCCCCCCCCCCCCCNc1ccn(C2OC(COP(=O)(O)OCC3OC(n4ccc(NC(=O)CCCCCCCCCCCCCCCCC)nc4=O)C(OC(C)=O)C3OC(C)=O)C(OC(C)=O)C2OC(C)=O)c(=O)n1` (stereo not given), the GI50 in test [1], in test [2], in test [3], in test [4], in test [5] and in test [6] was > 100 µM (inactive) each time. Besides, the GI50 in test [7], in [8], in test [9], in [10], in test [11] and in test [12] was > 100 µM (inactive) in each case. The GI50 in [13], in test [14], in test [15], in [16], in test [17] and in test [18] was > 100 µM (inactive) throughout. Besides, the GI50 in test [19] and in [20] was > 100 µM (inactive) in each case.
Consider `COC(=O)C1OC(O[C@H]2CC[C@]3(C)[C@H]4CC=C5[C@@H]6CC(C)(C)CC[C@]6(C(=O)OC)[C@H](O)C[C@@]5(C)[C@]4(C)CC[C@H]3C2(C)C)C(O)C(O)C1O` (stereo not given in full), for which the GI50 in [1] is 15 µM (inactive); in test [2], 13.1 µM (inactive); in [3], 7.96 µM (inactive); in [4], 12.6 µM (inactive); in test [5], 12.2 µM (inactive); in test [6] it was 12.9 µM (inactive). Moreover, the GI50 in [7] was 11 µM (inactive); in test [8] it was 11.5 µM (inactive); in test [9] it was 15 µM (inactive); in [10] it was 3.42 µM (inactive); in test [11], 10 µM (inactive); in [12], 13.1 µM (inactive). The GI50 was 15.1 µM (inactive) in [13]; 3.1 µM (inactive) in test [14]; 4.98 µM (inactive) in test [15]; 3.37 µM (inactive) in [16]; 13.9 µM (inactive) in [17]; 4.9 µM (inactive) in test [18]. Moreover, the GI50 in test [19] is 12.4 µM (inactive); in test [20], 14 µM (inactive).
